Measurements from patent US20080319031A1, “Novel Tyrosine Derivatives” (Orchid Chemicals & Pharmaceuticals Limited, priority 2005, published 2008).
Blank lines part the entries; values can stand above or below the compound they belong to.

Key:
[1] = system: TNF-α; assay: TNF-α inhibition in LPS-challenged human PBMC (ELISA); format: cell-based; details: hPBMC 1×10^6/mL, LPS 100 ng/mL for 20 hours, different concentrations
Procedure: (§1) FIG. 1. TNF-α, IL-6 and IL-1β inhibition in human peripheral blood monocytic cells (hPBMC).
(§2) Human PBMC cells were cultured and incubated with compound 1 in example 1 at different concentrations. Cells (1×10^6/mL) were challenged with lipopolysaccharides (LPS) at a concentration of (100 ng/mL) for 20 hours. Cell supernatant was analyzed for the presence of TNF-α, IL-1β and IL-6 cytokines by antibody directed enzyme-linked immunoassay.

[2] = system: IL-1β; assay: IL-1β inhibition in LPS-challenged human PBMC (ELISA); format: cell-based; details: hPBMC 1×10^6/mL, LPS 100 ng/mL for 20 hours, different concentrations
Procedure: as §1, §2

[3] = system: IL-6; assay: IL-6 inhibition in LPS-challenged human PBMC (ELISA); format: cell-based; details: hPBMC 1×10^6/mL, LPS 100 ng/mL for 20 hours, different concentrations
Procedure: as §1, §2

[4] = system: human peripheral blood mononuclear cells; assay: Cell viability of human PBMC incubated with compound; format: cell-based; details: hPBMC, highest concentration of the compound
[5] = target: T1, COX-2 (Homo sapiens, UniProt P35354); assay: COX-2 inhibition: LPS induced PGE-2 in human PBMC (ELISA); format: cell-based
T1 construct: LPS, also induces cycloxygenase-2 (COX-2) enzyme in this system; endogenous in cells; host or cells: human peripheral blood mononuclear cells from volunteers, LPS-stimulated
T1 sequence (P35354 18-604): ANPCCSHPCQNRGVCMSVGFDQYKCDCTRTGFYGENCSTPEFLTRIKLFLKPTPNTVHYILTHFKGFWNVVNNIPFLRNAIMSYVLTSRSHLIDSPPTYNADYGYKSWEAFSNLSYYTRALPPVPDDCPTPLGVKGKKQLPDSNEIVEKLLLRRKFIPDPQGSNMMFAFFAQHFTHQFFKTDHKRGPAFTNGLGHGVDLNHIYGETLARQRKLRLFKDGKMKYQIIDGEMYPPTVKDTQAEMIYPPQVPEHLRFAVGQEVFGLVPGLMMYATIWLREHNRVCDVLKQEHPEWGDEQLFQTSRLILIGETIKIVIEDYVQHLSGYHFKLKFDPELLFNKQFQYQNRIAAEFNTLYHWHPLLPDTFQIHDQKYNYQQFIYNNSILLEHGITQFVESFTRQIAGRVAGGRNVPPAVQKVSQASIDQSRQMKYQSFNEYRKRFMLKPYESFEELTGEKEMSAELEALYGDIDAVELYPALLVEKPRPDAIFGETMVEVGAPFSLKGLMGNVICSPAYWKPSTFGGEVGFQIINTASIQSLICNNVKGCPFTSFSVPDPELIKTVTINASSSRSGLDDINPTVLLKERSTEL
Procedure: (§3) The inflammatory stimulus, LPS, also induces cycloxygenase-2 (COX-2) enzyme in this system and as a result prostaglandin E 2 (PGE-2) is produced. Human PBMC cells were cultured and incubated with compound in example 1 at different concentrations. Cells (1×10^6/mL) were challenged with lipopolysaccharides (LPS) at a concentration of (100 ng/mL) for 20 hours. Inhibition of COX-2 was determined by the measurement of PGE-2 levels in the supernatant by ELISA (Cayman Chemicals). For the determination of PGE-2 levels, supernatants were incubated in the ELISA plate and detected by calorimetric reaction. […] The endogenous form, COX-1 is only activated when there is a physiological stimulus and goes through the same pathway for the production of PGE-2 levels. Human monocytic U-937 (2.5×10^5/mL) cells were charged with arachidonic acid to activate the COX-1 pathway. It produced PGE-2 following these kind of physiological induction. To assay the COX-1 activity, cells were preincubated with the compound for 15 min (indomethacin was kept as positive control) and then they were challenged with 10 μM arachidonic acid for next 20 min. Supernatants were harvested and measured for PGE-2 as marker of COX-1 activity.

[6] = target: T2, COX-1 (Homo sapiens, UniProt P23219); assay: COX-1 activity: arachidonic acid induced PGE-2 in U-937 cells; format: cell-based; details: 10 μM compound, 10 μM arachidonic acid 20 min
T2 construct: endogenous in cells; host or cells: U-937 human monocytic cells
T2 sequence (P23219 24-599): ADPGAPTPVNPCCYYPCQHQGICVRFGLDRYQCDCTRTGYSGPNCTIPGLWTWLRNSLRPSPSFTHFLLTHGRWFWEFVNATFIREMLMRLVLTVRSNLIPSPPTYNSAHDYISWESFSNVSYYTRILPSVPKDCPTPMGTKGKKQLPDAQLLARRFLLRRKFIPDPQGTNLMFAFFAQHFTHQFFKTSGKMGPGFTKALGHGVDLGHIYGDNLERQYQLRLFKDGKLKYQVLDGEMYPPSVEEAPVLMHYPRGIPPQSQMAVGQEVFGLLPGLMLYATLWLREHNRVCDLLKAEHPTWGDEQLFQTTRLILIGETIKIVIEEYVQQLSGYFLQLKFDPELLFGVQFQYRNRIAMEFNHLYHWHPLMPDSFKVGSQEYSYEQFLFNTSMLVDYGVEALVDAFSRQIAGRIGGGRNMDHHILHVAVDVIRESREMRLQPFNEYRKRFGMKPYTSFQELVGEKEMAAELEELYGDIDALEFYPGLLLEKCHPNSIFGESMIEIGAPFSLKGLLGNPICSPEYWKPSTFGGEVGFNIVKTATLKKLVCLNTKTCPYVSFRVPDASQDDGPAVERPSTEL
Procedure: as §3

[7] = system: TNF-α; assay: LPS induced TNF-α production in vivo; parameters: species or system Swiss Webster (SW) mice; details: one hour before LPS 10 μg/mouse ip, blood after 90 min
Procedure: FIG. 3. Compound 1 Inhibits LPS Induced TNF-α Production In Vivo.
Swiss Webster (SW) mice were orally treated with vehicle, dexamethasone (5 mg/kg bw) and compound 1 in example 1 (50 mg/kg bw) one hour before LPS injection (10 μg/mouse, ip) and blood was collected after 90 min and measured TNF-α levels by ELISA as described in FIG. 1.

[8] = system: SJL/J mice; assay: Experimental allergic encephalomyelitis (EAE) model of multiple sclerosis; format: in vivo; details: EAE induced by spinal chord homogenate in SJL/J mice
Procedure: Multiple Sclerosis (MS) is an autoimmune disease and is regulated by cytokine levels. In order to test the effect of compound 1 in example 1 in MS model, experimental allergic encepahalomyalitis (EAE) was induced in SJL/J mice. EAE is an autoimmune inflammatory disease of the central nervous system (CNS). […] EAE was induced by injecting spinal chord homogenate and the animals were treated with example compounds. The severity of EAE was established by clinical scores of paralysis.

[9] = system: MCF-7; assay: Breast cancer cell growth (MTS viability); format: cell-based; details: for inhibition of breast cancer cell growth: MCF-7, six consecutive days, MTS every 48 hrs
Procedure: MCF-7 is a breast cancer cells and they were grown in 96 well plates at 1000 cells/well. The cells were pretreated with either compound 11 in example 11 and 8 in example 8 or DMSO for six consecutive days. Every 48 hrs they were stained with MTS dye and viability was checked accordingly.

[10] = system: DU-145; assay: Prostate cancer cell growth (MTS viability); format: cell-based; details: DU-145, six consecutive days, MTS every 48 hrs
Procedure: DU-145 is a prostate cancer cell and they were grown in 96 well plates at 1000 cells/well. The cells were pretreated with either compound 11 in example 11 and 8 in example 8 or DMSO for six consecutive days. Every 48 hrs they were stained with MTS dye and viability was checked accordingly.

[11] = system: db/db (spontaneous model) diabetic mice; assay: Blood glucose and body weight in db/db obese diabetic mice; format: in vivo; details: 50 mg/kg body weight oral in water
Procedure: FIG. 5. […] Seven weeks old male db/db (spontaneous model) diabetic mice were orally treated with compound 20 in example 20 at a dose of 50 mg/kg body weight in water and blood glucose was monitored by Accuchek glucometer.

[12] = system: C57BL/6J male ob/ob diabetic mice; assay: Blood glucose in ob/ob mice; format: in vivo; details: 50 mg/kg body weight oral in water, within six days of treatment
Procedure: FIG. 6. Lowering of Blood Glucose in ob/ob Mice by Compound 20 in Example 20. Seven weeks old C57BL/6J male ob/ob (obese, insulin resistant spontaneous model of type-II diabetes) diabetic mice were orally treated with compound 20 in example 20, at a dose of 50 mg/kg body weight dissolved in water and blood glucose (FIG. 6) was monitored by Accuchek glucometer.

[13] = system: Diet induced obese mice; assay: Body weight in diet induced obesity mouse model; format: in vivo, C57BL/6J male mouse; details: 60% Kcal high fat diet, 50 mg/kg body weight, compared to vehicle
Procedure: FIG. 7. Effect of Compound 20 in Example 20 on Diet Induced Obesity Mouse Models. C57BL/6J male mouse were fed with 60% Kcal high fat diet (D12492, Research Diet) ad libitum 15 days prior to the beginning of the treatment. Diet induced obese mice were treated with a dose of 50 mg/kg body weight compound 20 in example 20 and their bodyweight was monitored on every third day.

[14] = system: Diet induced obese mice; assay: OGTT and serum insulin in diet induced obesity model; format: in vivo, C57BL/6J male mouse; details: day 60 of high fat feeding
Procedure: C57BL/6J male mouse were fed with 60% Kcal high fat diet (D12492, Research Diet) ad libitum 15 days prior to the beginning of the treatment. Diet induced obese mice were treated with a dose of 50 mg/kg body weight compound 20 in example 20 and their bodyweight was monitored on every third day. […] FIG. 8. Oral Glucose Tolerance Test (OGTT) in Diet Induced Obesity Model for Compound 20 in Example 20. […] To see the effect of compound 20 in example 20, on day 60 an OGTT study was carried to observe the improvement of glucose tolerance upon the treatment of compound 20 in example 20.

[15] = system: 3T3-L1 fibroblasts; assay: Adipogenesis in 3T3-L1 fibroblasts (Oil-red-O staining); format: cell-based
Procedure: FIG. 9. Compound 20 in Example 20 is Not Adipogenic.
All known PPARγ agonists induce differentiation in fibroblast cells. The adipogenic potential of these compounds are correlated with their affinity to this receptor. To check quickly the affinity of compound 20 in example 20 to this receptors, 3T3-L1 fibroblasts were treated with either DMSO control or rosiglitazone as positive control or these two compounds for several days at different concentrations. On day 13th, the differentiated adipocytes were stained with Oil-red-O (Sigma) and washed thoroughly to remove unbound stain and visualized under Olympus microscope.

[16] = system: HCT-116; assay: Colon cancer cell growth (MTS viability); format: cell-based, human; details: 30 μM, 48 hrs
Procedure: FIG. 10. […] HCT-116 is a human colon cancer cell line and they were grown in 96 well plates with seeding concentration of […] cells/mL.

Compound: COC(=O)C(N)Cc1ccc(Oc2ccc(C=C3C(=O)Nc4ccccc43)cc2)cc1.Cl (stereo not drawn) [Compound 1, Methyl-2-amino-3-(4-{4-[(2-oxo-1,2-dihydro-3H-indol-3-ylidene)methyl]phenoxy}phenyl) propanoate hydrochloride]
inhibition of TNF-α production [1]: inhibit the production of three major pro-inflammatory cytokines in a dose dependent manner
inhibition of IL-1β production [2]: inhibit the production of three major pro-inflammatory cytokines in a dose dependent manner
inhibition of IL-6 production [3]: inhibit the production of three major pro-inflammatory cytokines in a dose dependent manner
change in cell viability [4]: No significant change in cell viability
inhibition of LPS induced PGE-2 production ([5]; 10 μM compound, hPBMC): completely inhibited LPS induced PGE-2 production
selectivity on COX-2 over COX-1 activity ([5]; LPS induced vs arachidonic acid induced PGE-2): Selectively Inhibits COX-2 Than COX-1 Enzyme
inhibition of LPS induced COX-2 activity (PGE-2 levels) ([5]; hPBMC, LPS 100 ng/mL for 20 hours, different concentrations): dose dependently inhibited LPS induced COX-2 activity
effect on arachidonic acid induced PGE-2 levels (COX-1 activity) [6]: no effect on arachidonic acid induced PGE-2 levels
reduction of TNF levels compared to control group ([7]; 50 mg/kg bw oral): 25%
severity of EAE (clinical scores of paralysis) [8]: complete prevention of EAE

Compound: COC(=O)C(N)Cc1ccc(Oc2ccc(C=C3C(=O)Nc4ccccc43)c(C(F)(F)F)c2)cc1.Cl (stereo not drawn) [Compound 8, Methyl-2-amino-3-(4-{3-trifluoromethyl-4-[(2-oxo-1,2-dihydro-3H-indol-3-ylidene)methyl]phenoxy}phenyl) propanoate hydrochloride]
dose dependence of breast cancer cell growth inhibition ([9]; MCF-7, doses from 1-50 μM): worked equally well
inhibition of breast cancer cell growth [9]: very strong in inhibiting the breast cancer cell growth
inhibition of prostate cancer cell growth [10]: selectively kills breast cancer cells

Compound: COC(=O)C(N)Cc1ccc(Oc2ccc(CC3C(=O)Nc4ccccc43)cc2C(F)(F)F)cc1.Cl (stereo not drawn) [Compound 11, Methyl-2-amino-3-(4-{2-trifluoromethyl-4-[(2-oxo-2,3-dihydro-1H-indol-3-yl)methyl]phenoxy}phenyl) propanoate hydrochloride]
inhibition of breast cancer cell growth [9]: Inhibits Breast Cancer Cell Growth
inhibition of prostate cancer cell growth [10]: very similar in both breast and prostate cancer cells

affinity to PPARγ receptor (indirect proof from adipogenesis) ([15]; inferred from 3T3-L1 adipogenesis): no affinity to PPARγ receptor
Compound: CN(C)C(=O)[C@@H](N)Cc1ccc(Oc2ccc(/C=C3/C(=O)Nc4ccccc43)cc2)cc1.Cl [Compound 20, 2-amino-N,N-dimethyl-3-{4-[4-(2-oxo-1,2-dihydroindol-3-ylidenemethyl)-phenoxy]-phenyl}-propionamide hydrochloric acid]
blood glucose [11]: Reduces Blood Glucose
body weight ([11]; compared to vehicle): lowering of body weight compared to vehicle
blood glucose [12]: strong glucose lowering activity
body weight gain [13]: less body weight gain compared to vehicle treated animals
decrease of serum insulin level [14]: 70%
adipogenesis (differentiation of fibroblasts) ([15]; 3T3-L1, different concentrations, stained on day 13): remained unchanged

Compound: Cl.NC(=O)[C@@H](N)Cc1ccc(Oc2ccc(/C=C3/C(=O)Nc4ccccc43)cc2)cc1 [Compound 21, 2-amino-3-{4-[4-(2-oxo-1,2-dihydroindol-3-ylidenemethyl)-phenoxy]-phenyl}-propionamide hydrochloric acid]
inhibition of colon cancer cell growth [16]: completely inhibited colon cancer cell growth

Compound: C[C@@H]1C[C@H]2[C@@H]3CCC4=CC(=O)C=C[C@]4(C)[C@@]3(F)[C@@H](O)C[C@]2(C)[C@@]1(O)C(=O)CO [dexamethasone, reference compound]
inhibition of TNF levels ([7]; 5 mg/kg body weight oral): 95%
